According to patent publication US9663473B2 (Actelion Pharmaceuticals Ltd, priority 2013, dated 2017):
Counter-ions that a name gives are not always drawn.

biological target: T1, recombinant human ALX receptor (Homo sapiens, UniProt P25090); assay: Intracellular calcium measurements (FLIPR), ALX receptor agonistic activity; type: cell-based; details: HEK293-hALXR-Gα16 cells, Fluo-4 calcium signal, normalized to WKYMVm 10 nM
T1 construct: expressed in transfected cells; host or cells: HEK293 (HEK293-hALXR-Gα16)
T1 sequence (P25090 1-351): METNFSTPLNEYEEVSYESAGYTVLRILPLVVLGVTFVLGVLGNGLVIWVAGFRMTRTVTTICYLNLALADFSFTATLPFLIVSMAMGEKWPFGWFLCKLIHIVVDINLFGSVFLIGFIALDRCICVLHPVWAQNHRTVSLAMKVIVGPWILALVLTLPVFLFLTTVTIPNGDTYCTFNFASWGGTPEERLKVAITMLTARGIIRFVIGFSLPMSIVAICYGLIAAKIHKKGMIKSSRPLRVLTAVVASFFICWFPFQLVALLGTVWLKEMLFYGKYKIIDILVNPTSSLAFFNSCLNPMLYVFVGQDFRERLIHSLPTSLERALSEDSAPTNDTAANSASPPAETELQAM
How it was run: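 HEK293 cells co-expressing human ALX receptor and Gα16 were loaded with 1 μM Fluo-4 AM for 60 min at 37° C., then exposed to serially diluted compounds on FLIPR Tetra. Peak fluorescence above baseline (ex 488/em 540 nm) was normalized to 10 nM WKYMVm as high control.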

| EC50 [nM] | Structure (SMILES) |
| --- | --- |
| 2.7 | COc1ccc(CC(NC(=O)NC2CCC(C)(O)CC2)c2nc3ccccc3[nH]2)cc1F (single isomer, unassigned; ent-1) [Example 308, 1-(1-(1H-Benzo[d]imidazol-2-yl)-2-(3-fluoro-4-methoxyphenyl)ethyl)-3-(trans-4-hydroxy-4-methylcyclohexyl)urea (ent-1)] |
| 600 | COc1ccc(C[C@@H](NC(=O)NC2CC2)c2nc3ccccc3[nH]2)cc1 [Example 19, (R)-1-(1-(1H-Benzo[d]imidazol-2-yl)-2-(4-methoxyphenyl)ethyl)-3-cyclopropylurea] |
| 0.8 | COc1ccc(C[C@@H](NC(=O)NC23CCC(O)(CC2)CC3)c2nc3ccc(F)cc3[nH]2)cc1 [Example 196, (R)-1-(1-(6-Fluoro-1H-benzo[d]imidazol-2-yl)-2-(4-methoxyphenyl)ethyl)-3-(4-hydroxybicyclo[2.2.2]octan-1-yl)urea] |
| 2.3 | COc1ccc(CC(NC(=O)N[C@H]2CC[C@H](O)CC2)c2nc3cc(C(F)(F)F)ccc3[nH]2)cc1 (relative stereo) [Example 82, 1-(trans-4-Hydroxycyclohexyl)-3-(2-(4-methoxyphenyl)-1-(5-(trifluoromethyl)-1H-benzo[d]imidazol-2-yl)ethyl)urea] |
| 707 | CC(C)(C)c1ccc(CC(NC(=O)N[C@H]2CC[C@H](O)CC2)c2nc3ccccc3[nH]2)cc1 (relative stereo) [Example 79, 1-(1-(1H-Benzo[d]imidazol-2-yl)-2-(4-(tert-butyl)phenyl)ethyl)-3-(trans-4-hydroxycyclohexyl)urea] |
| 5.5 | COc1cc(F)c(CC(NC(=O)N[C@H]2CC[C@H](O)CC2)c2nc3ccccc3[nH]2)cc1F (single isomer, unassigned; ent-1) [Example 356, 1-(1-(1H-Benzo[d]imidazol-2-yl)-2-(2,5-difluoro-4-methoxyphenyl)ethyl)-3-(trans-4-hydroxycyclohexyl)urea (ent-1)] |
| 89 | COc1ccc(CC(NC(=O)Nc2cc(C)nn2C)c2nc3ccccc3[nH]2)cc1 (stereo not drawn) [Example 416, 1-(1-(1H-benzo[d]imidazol-2-yl)-2-(4-methoxyphenyl)ethyl)-3-(1,3-dimethyl-1H-pyrazol-5-yl)urea] |
| 138 | COc1c(F)cc(CC(NC(=O)N[C@H]2CC[C@H](O)CC2)c2nc3ccccc3[nH]2)cc1F (relative stereo) [Example 241, 1-(1-(1H-Benzo[d]imidazol-2-yl)-2-(3,5-difluoro-4-methoxyphenyl)ethyl)-3-(trans-4-hydroxycyclohexyl)urea] |
| 34 | COc1ccc(C[C@@H](NC(=O)NC2COCc3ccccc32)c2nc3ccccc3[nH]2)cc1 (stereo partly drawn) [Example 218, 1-((R)-1-(1H-Benzo[d]imidazol-2-yl)-2-(4-methoxyphenyl)ethyl)-3-(isochroman-4-yl)urea] |
| 130 | COc1ccc(C[C@@H](NC(=O)NC2CCCC(C)C2)c2nc3ccccc3[nH]2)cc1 (stereo partly drawn) [Example 33, 1-((R)-1-(1H-Benzo[d]imidazol-2-yl)-2-(4-methoxyphenyl)ethyl)-3-(3-methylcyclohexyl)urea] |
| 107 | COc1ccc(C[C@@H](NC(=O)N[C@H]2CC[C@H](O)c3ccccc32)c2nc3ccccc3[nH]2)cc1 (relative stereo) [Example 134, 1-((R)-1-(1H-Benzo[d]imidazol-2-yl)-2-(4-methoxyphenyl)ethyl)-3-((1 S*,4S*)-4-hydroxy-1,2,3,4-tetrahydronaphthalen-1-yl)urea] |
| 14 | COc1ccc(C[C@@H](NC(=O)Nc2cc(C3CC3)nn2C)c2nc3ccccc3[nH]2)cc1 [Example 314, (R)-1-(1-(1H-Benzo[d]imidazol-2-yl)-2-(4-methoxyphenyl)ethyl)-3-(3-cyclopropyl-1-methyl-1H-pyrazol-5-yl)urea] |
| 27 | COc1ccc(C[C@@H](NC(=O)NC2CC=CC2)c2nc3ccccc3[nH]2)cc1 [Example 13, (R)-1-(1-(1H-Benzo[d]imidazol-2-yl)-2-(4-methoxyphenyl)ethyl)-3-(cyclopent-3-en-1-yl)urea hydrochloride] |
| 720 | COc1ccc(CC(C)(NC(=O)Nc2cc(C3CC3)nn2C)c2nc3ccccc3[nH]2)cc1 (stereo not drawn) [Example 422, 1-(2-(1H-benzo[d]imidazol-2-yl)-1-(4-methoxyphenyl)propan-2-yl)-3-(3-cyclopropyl-1-methyl-1H-pyrazol-5-yl)urea] |
| 16 | COc1ccc(C[C@@H](NC(=O)NC2CCN(C(=O)OC(C)(C)C)C2)c2nc3ccccc3[nH]2)cc1 (stereo partly drawn) [Example 93, tert-butyl 3-(3-((R)-1-(1H-Benzo[d]imidazol-2-yl)-2-(4-methoxyphenyl)ethyl)ureido)pyrrolidine-1-carboxylate] |
| 5.2 | C[C@]1(O)CC[C@H](NC(=O)NC(Cc2ccc(Br)c(F)c2)c2nc3ccccc3[nH]2)CC1 (mixture of isomers) [Example 231, 1-(1-(1H-Benzo[d]imidazol-2-yl)-2-(4-bromo-3-fluorophenyl)ethyl)-3-(trans-4-hydroxy-4-methylcyclohexyl)urea] |
| 277 | COC(=O)c1ccc(C2(NC(=O)N[C@H](Cc3ccc(OC)cc3)c3nc4ccccc4[nH]3)CC2)cc1 [Example 342, (R)-Methyl 4-(1-(3-(1-(1H-benzo[d]imidazol-2-yl)-2-(4-methoxyphenyl)ethyl)ureido)cyclopropyl)benzoate] |
| 9.5 | COc1ccc(CC(NC(=O)N[C@H]2CC[C@H](O)CC2)c2nc3ccccc3[nH]2)cc1F (relative stereo) [Example 167, 1-(1-(1H-Benzo[d]imidazol-2-yl)-2-(3-fluoro-4-methoxyphenyl)ethyl)-3-(trans-4-hydroxycyclohexyl)urea] |
| 12 | O=C(NC(Cc1ccc(C(F)(F)F)cc1F)c1nc2ccccc2[nH]1)N[C@H]1CC[C@H](O)CC1 (relative stereo) [Example 240, 1-(1-(1H-Benzo[d]imidazol-2-yl)-2-(2-fluoro-4-(trifluoromethyl)phenyl)ethyl)-3-(trans-4-hydroxycyclohexyl)urea] |
| 209 | COc1ccc(CC(NC(=O)NC2CCCC2)c2nc3ccccc3[nH]2)cc1F (stereo not drawn) [Example 175, 1-(1-(1H-Benzo[d]imidazol-2-yl)-2-(3-fluoro-4-methoxyphenyl)ethyl)-3-cyclopentylurea] |
| 155 | COc1c(F)cc(CC(NC(=O)N[C@H]2CC[C@](C)(O)CC2)c2nc3ccccc3[nH]2)cc1F (mixture of isomers) [Example 243, 1-(1-(1H-Benzo[d]imidazol-2-yl)-2-(3,5-difluoro-4-methoxyphenyl)ethyl)-3-(trans-4-hydroxy-4-methylcyclohexyl)urea] |
| 947 | COc1ccc(C[C@@H](NC(=O)NCCN2CCN(C(=O)OC(C)(C)C)CC2)c2nc3ccccc3[nH]2)cc1 [Example 144, (R)-tert-Butyl 4-(2-(3-(1-(1H-benzo[d]imidazol-2-yl)-2-(4-methoxyphenyl)ethyl)ureido)ethyl)piperazine-1-carboxylate] |
| 21 | COc1ccc(C[C@@H](NC(=O)N[C@@H](Cc2ccccc2)C(N)=O)c2nc3ccccc3[nH]2)cc1 [Example 208, (S)-2-(3-((R)-1-(1H-Benzo[d]imidazol-2-yl)-2-(4-methoxyphenyl)ethyl)ureido)-3-phenylpropanamide] |
| 4.5 | COc1cc(F)c(CC(NC(=O)NC23CCC(O)(CC2)CC3)c2nc3ccccc3[nH]2)c(F)c1 (stereo not drawn) [Example 248, 1-(1-(1H-Benzo[d]imidazol-2-yl)-2-(2,6-difluoro-4-methoxyphenyl)ethyl)-3-(4-hydroxybicyclo[2.2.2]octan-1-yl)urea] |
| 128 | COc1ccc(C[C@@H](NC(=O)N[C@@H](C)c2ccc(F)cc2)c2nc3ccccc3[nH]2)cc1 [Example 321, 1-((R)-1-(1H-Benzo[d]imidazol-2-yl)-2-(4-methoxyphenyl)ethyl)-3-((S)-1-(4-fluorophenyl)ethyl)urea] |
| 151 | COc1ccc(C[C@@H](NC(=O)NCCC2CCN(C)CC2)c2nc3ccccc3[nH]2)cc1 [Example 160, (R)-1-(1-(1H-Benzo[d]imidazol-2-yl)-2-(4-methoxyphenyl)ethyl)-3-(2-(1-methylpiperidin-4-yl)ethyl)urea] |
| 234 | COc1ccc(C[C@@H](NC(=O)NCc2cccc(C(F)(F)F)c2Cl)c2nc3ccccc3[nH]2)cc1 [Example 273, (R)-1-(1-(1H-Benzo[d]imidazol-2-yl)-2-(4-methoxyphenyl)ethyl)-3-(2-chloro-3-(trifluoromethyl)benzyl)urea] |
| 112 | COc1ccc(C[C@@H](NC(=O)N[C@H]2C[C@@H]2c2ccccc2)c2nc3ccccc3[nH]2)cc1 (relative stereo) [Example 16, 1-((R)-1-(1H-Benzo[d]imidazol-2-yl)-2-(4-methoxyphenyl)ethyl)-3-((1 S*,2R*)-2-phenylcyclopropyl)urea hydrochloride] |
| 8.1 | O=C(NC(Cc1ccc(Br)c(F)c1)c1nc2ccccc2[nH]1)N[C@H]1CC[C@H](O)CC1 (relative stereo) [Example 187, 1-(1-(1H-Benzo[d]imidazol-2-yl)-2-(4-bromo-3-fluorophenyl)ethyl)-3-(trans-4-hydroxycyclohexyl)urea] |
| 1.9 | O=C(N[C@H](Cc1ccc(Br)cc1)c1nc2ccc(Cl)cc2[nH]1)NC12CCC(O)(CC1)CC2 [Example 194, (R)-1-(2-(4-Bromophenyl)-1-(6-chloro-1H-benzo[d]imidazol-2-yl)ethyl)-3-(4-hydroxybicyclo[2.2.2]octan-1-yl)urea] |
